Source: patent US8278337B2, “Substituted pyridines that are JNK inhibitors” (Merck Sharp & Dohme, priority 2006, dated 2012)
“And” between values parts separate entries of the source, which are not always exact repeats. Identical values can stand only once.

Target: JNK1 (Homo sapiens, UniProt P45983)
Test: DELFIA kinase assay, JNK1
Format: biochemical
Details: DELFIA, biotinylated GST-ATF2 substrate, 10 minute pre-incubation, final ATP 7 uM
Method in brief: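 Enzyme (2 nM JNK1) was preincubated 10 min with 0–100 μM compound in HEPES pH 7.3 with 5% DMSO, then reacted 30 min at room temperature with biotinylated GST-ATF2 (6 ug/mL). Final ATP was 7 uM for JNK1, 4 uM for JNK2 and 2 uM for JNK3. Phospho-ATF2 was detected by DELFIA europium fluorescence (ex 340, em 615 nm).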

Sequence of JNK1 (P45983 whole entry, species assumed): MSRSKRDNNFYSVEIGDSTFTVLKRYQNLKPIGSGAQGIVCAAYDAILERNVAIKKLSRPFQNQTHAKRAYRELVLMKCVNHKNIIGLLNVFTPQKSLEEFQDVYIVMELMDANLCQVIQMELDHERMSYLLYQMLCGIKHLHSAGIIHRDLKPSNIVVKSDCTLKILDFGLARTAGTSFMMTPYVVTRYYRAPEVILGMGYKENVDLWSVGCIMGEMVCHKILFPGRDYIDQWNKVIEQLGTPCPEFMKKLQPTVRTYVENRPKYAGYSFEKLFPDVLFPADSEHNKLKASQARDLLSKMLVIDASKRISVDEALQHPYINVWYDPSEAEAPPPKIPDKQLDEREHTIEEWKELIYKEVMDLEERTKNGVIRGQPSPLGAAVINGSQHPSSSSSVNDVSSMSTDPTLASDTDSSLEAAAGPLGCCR

| IC50 | SMILES |
| --- | --- |
| > 1 µM and 1.03 to 10 µM | CS(=O)(=O)c1ccc(CNC(=O)c2cccc(-c3ccccc3F)n2)cc1 [Compound 316] |
| > 1 µM and 1.03 to 10 µM | CS(=O)(=O)c1ccc(CNC(=O)c2cccc(-c3ccccn3)n2)cc1 [Compound 317] |
| 0.102 to 0.959 µM | CS(=O)(=O)c1ccc(CNC(=O)c2cccc(-n3cc(I)cn3)n2)cc1 [Compound 318] |
| > 1 µM and 1.03 to 10 µM | CCOC(=O)c1cnn(-c2cccc(C(=O)NCc3ccc(S(C)(=O)=O)cc3)n2)c1 [Compound 319] |
| > 1 µM and 1.03 to 10 µM | Cc1cc(C)n(-c2cccc(C(=O)NCc3ccc(S(C)(=O)=O)cc3)n2)n1 [Compound 320] |
| > 1 µM and 1.03 to 10 µM | CS(=O)(=O)c1ccc(CNC(=O)c2cccc(-n3cc(-c4ccc(F)cc4)cn3)n2)cc1 [Compound 321] |
| 0.102 to 0.959 µM | CS(=O)(=O)c1ccc(CNC(=O)c2cccc(-n3ncc4ccccc43)n2)cc1 [Compound 322] |
| 1.03 to 10 µM and > 1 µM | Cc1cnn(-c2cccc(C(=O)NCc3ccc(S(C)(=O)=O)cc3)n2)c1 [Compound 323] |
| 1.03 to 10 µM and > 1 µM | Cc1ccn(-c2cccc(C(=O)NCc3ccc(S(C)(=O)=O)cc3)n2)n1 [Compound 324] |
| 1.03 to 10 µM and > 1 µM | Cc1ccnn1-c1cccc(C(=O)NCc2ccc(S(C)(=O)=O)cc2)n1 [Compound 325] |
| 1.03 to 10 µM and > 1 µM | CS(=O)(=O)c1ccc(CNC(=O)c2cccc(-n3cncn3)n2)cc1 [Compound 326] |
| 1.03 to 10 µM and > 1 µM | CS(=O)(=O)c1ccc(CNC(=O)c2cccc(-n3cnc(Br)c3)n2)cc1 [Compound 327] |
| 0.102 to 0.959 µM | CS(=O)(=O)c1ccc(CNC(=O)c2cccc(-n3cc(Br)cn3)n2)cc1 [Compound 328] |
| 0.102 to 0.959 µM | COc1ccc(F)cc1-c1cccc(C(=O)NCc2ccc(S(C)(=O)=O)cc2)n1 [Compound 329] |
| 0.102 to 0.959 µM | COc1cccc(-c2cccc(C(=O)NCc3ccc(S(C)(=O)=O)cc3)n2)c1F [Compound 330] |
| 0.102 to 0.959 µM | COc1ccc(-c2cccc(C(=O)NCc3ccc(S(C)(=O)=O)cc3)n2)c(F)c1 [Compound 331] |
| 0.102 to 0.959 µM | CS(=O)(=O)c1ccc(CNC(=O)c2cccc(-c3ccc4c(c3)OCO4)n2)cc1 [Compound 332] |
| > 1 µM and 1.03 to 10 µM | Cn1cc(-c2cccc(C(=O)NCc3ccc(S(C)(=O)=O)cc3)n2)cn1 [Compound 333] |
| 0.102 to 0.959 µM | CS(=O)(=O)c1ccc(CNC(=O)c2cccc(-n3cc(-c4ccccn4)cn3)n2)cc1 [Compound 334] |
| 0.102 to 0.959 µM | CS(=O)(=O)c1ccc(CNC(=O)c2cccc(-n3cc(-c4cnccn4)cn3)n2)cc1 [Compound 335] |
| 0.102 to 0.959 µM | CC(C)(C)c1cnn(-c2cccc(C(=O)NCc3ccc(S(C)(=O)=O)cc3)n2)c1 [Compound 336] |
| > 1 µM and 1.03 to 10 µM | CC(C)CNc1cccc(C(=O)NCc2ccc(S(C)(=O)=O)cc2)n1 [Compound 337] |
| > 1 µM and 1.03 to 10 µM | CC(C)CN(C)c1cccc(C(=O)NCc2ccc(S(C)(=O)=O)cc2)n1 [Compound 338] |
| > 1 µM and 1.03 to 10 µM | CS(=O)(=O)c1ccc(CNC(=O)c2cccc(-c3cc4ccccc4[nH]3)n2)cc1 [Compound 339] |
| 0.102 to 0.959 µM | CS(=O)(=O)c1ccc(CNC(=O)c2cccc(-c3nc4ccccc4[nH]3)n2)cc1 [Compound 376] |
| 0.102 to 0.959 µM | COc1cccc2ccc(C(=O)NCc3ccc(S(C)(=O)=O)cc3)nc12 [Compound 383] |
| > 1 µM and 1.03 to 10 µM | C[C@@H](CO)NC(=O)c1cc(-c2ccccc2)cc(C(=O)NCc2ccc(S(C)(=O)=O)cc2)n1 [Compound 407] |
| > 1 µM and 1.03 to 10 µM | CCNC(=O)c1cc(Cl)cc(C(=O)NCc2ccc(S(C)(=O)=O)cc2)n1 [Compound 408] |
| > 1 µM and 1.03 to 10 µM | CCNC(=O)c1cc(-c2cccs2)cc(C(=O)NCc2ccc(S(C)(=O)=O)cc2)n1 [Compound 415] |
| > 1 µM and 1.03 to 10 µM | C[C@H](CO)NC(=O)c1cc(-c2cccs2)cc(C(=O)NCc2ccc(S(C)(=O)=O)cc2)n1 [Compound 417] |

Further lines, the molecule ahead of its results:

| SMILES | IC50 |
| --- | --- |
| O=C(NCc1cnn(-c2cccc(C(F)(F)F)c2)c1)c1cccc(N2CCCC2)n1 [Compound 343] | 1.03 to 10 µM and > 1 µM |
| O=C(NCc1cnn(-c2cccc(C(F)(F)F)c2)c1)c1cccc(N2Cc3ccccc3C2)n1 [Compound 344] | > 1 µM |
| O=C(NCc1cnn(-c2cccc(C(F)(F)F)c2)c1)c1cccc(N2CCOCC2)n1 [Compound 345] | 1.03 to 10 µM and > 1 µM |
| O=C(NCc1cnn(-c2cccc(C(F)(F)F)c2)c1)c1cccc(N2CCC(c3ccccn3)C2)n1 (stereo not shown) [Compound 346] | 1.03 to 10 µM and > 1 µM |
| O=C(NCc1cnn(-c2cccc(C(F)(F)F)c2)c1)c1cccc(-c2cc3ccccc3[nH]2)n1 [Compound 347] | 1.03 to 10 µM and > 1 µM |
| CC(=O)Nc1cccc(C(=O)NCc2cnn(-c3cccc(C(F)(F)F)c3)c2)n1 [Compound 353] | 0.102 to 0.959 µM |
| CC(C)C(=O)Nc1cccc(C(=O)NCc2cnn(-c3cccc(C(F)(F)F)c3)c2)n1 [Compound 354] | 0.102 to 0.959 µM |
| COC(=O)Nc1cccc(C(=O)NCc2cnn(-c3cccc(C(F)(F)F)c3)c2)n1 [Compound 355] | 0.102 to 0.959 µM |
| NC(=O)Nc1cccc(C(=O)NCc2cnn(-c3cccc(C(F)(F)F)c3)c2)n1 [Compound 356] | 0.102 to 0.959 µM |
| CNc1cccc(C(=O)NCc2cnn(-c3cccc(C(F)(F)F)c3)c2)n1 [Compound 362] | 0.102 to 0.959 µM |
| CC(=O)N(C)c1cccc(C(=O)NCc2cnn(-c3cccc(C(F)(F)F)c3)c2)n1 [Compound 363] | > 1 µM and 1.03 to 10 µM |
| CC(C)C(=O)N(C(=O)C(C)C)c1cccc(C(=O)NCc2cnn(-c3cccc(C(F)(F)F)c3)c2)n1 [Compound 364] | > 1 µM and 1.03 to 10 µM |
| CC(C)C(=O)N(C)c1cccc(C(=O)NCc2cnn(-c3cccc(C(F)(F)F)c3)c2)n1 [Compound 365] | > 1 µM and 1.03 to 10 µM |
| CCOC(=O)N1CCC(NC(=O)c2cccc(C(=O)NCc3ccc(S(C)(=O)=O)cc3)c2)CC1 [Compound 371] | > 1 µM |
| CCOC(=O)N1CCC(NC(=O)c2cccc(C(=O)NCc3ccc4c(c3)OCO4)c2)CC1 [Compound 372] | > 1 µM |
| CC(C)NC(=O)c1cccc(-c2nc3ccccc3[nH]2)n1 [Compound 377] | > 1 µM and 1.03 to 10 µM |
| O=C(NCc1nc2ccccc2s1)c1cccc(-c2nc3ccccc3[nH]2)n1 [Compound 378] | 0.102 to 0.959 µM |
| CCNC(=O)Oc1cccc2ccc(C(=O)NCc3ccc(S(C)(=O)=O)cc3)nc12 [Compound 384] | > 1 µM and 1.03 to 10 µM |
| CCOC(=O)N1CCC(NC(=O)c2cccc(Nc3cccnc3)n2)CC1 [Compound 388] | > 1 µM |
| CCOC(=O)N1CCC(NC(=O)c2cccc(Nc3ccc4ncccc4c3)n2)CC1 [Compound 389] | > 1 µM |

| SMILES | IC50 |
| --- | --- |
| CCOC(=O)N1CCC(NC(=O)c2cccc(Nc3ccc(N4CCOCC4)cc3)n2)CC1 [Compound 390] | > 1 µM |
| CCOC(=O)N1CCC(NC(=O)c2cccc(NCc3cccnc3)n2)CC1 [Compound 391] | > 1 µM |
| CCOC(=O)N1CCC(NC(=O)c2cccc(NCc3ccc4c(c3)OCO4)n2)CC1 [Compound 392] | > 1 µM |
| CCOC(=O)N1CCC(NC(=O)c2cccc(NCCc3ccncc3)n2)CC1 [Compound 393] | > 1 µM |
| CCOC(=O)N1CCC(NC(=O)c2cccc(N(C)CCc3ccncc3)n2)CC1 [Compound 394] | > 1 µM |
| CCOC(=O)N1CCC(NC(=O)c2cccc(NCC3CCNCC3)n2)CC1 [Compound 395] | > 1 µM |
| CCOC(=O)N1CCC(NC(=O)c2cccc(Nc3ccccn3)n2)CC1 [Compound 396] | > 1 µM |
| CCOC(=O)N1CCC(NC(=O)c2cccc(NC(C)=O)n2)CC1 [Compound 399] | > 1 µM and 1.03 to 10 µM |
| CCOC(=O)Nc1cccc(C(=O)NC2CCN(C(=O)OCC)CC2)n1 [Compound 400] | > 1 µM and 1.03 to 10 µM |
| CCOC(=O)N1CCC(NC(=O)c2cccc(NC(=O)Cc3ccc4c(c3)OCO4)n2)CC1 [Compound 401] | > 1 µM and 1.03 to 10 µM |
| CCOC(=O)N1CCC(NC(=O)c2cccc(NC(=O)Cc3ccc(S(C)(=O)=O)cc3)n2)CC1 [Compound 402] | > 1 µM and 1.03 to 10 µM |
| CCOC(=O)N1CCC(NC(=O)c2cc(-c3cccs3)cc(C(=O)NCc3ccc(S(C)(=O)=O)cc3)n2)CC1 [Compound 414] | > 1 µM and 1.03 to 10 µM |
| C[C@@H](CO)NC(=O)c1cc(-c2cccs2)cc(C(=O)NCc2ccc(S(C)(=O)=O)cc2)n1 [Compound 416] | > 1 µM and 1.03 to 10 µM |
| CC(C)NC(=O)c1cccc(C(=O)NCC2CCN(c3cccc(C#N)c3)CC2)n1 [Compound 419] | > 1 µM and 1.03 to 10 µM |
| CC(C)NC(=O)c1cccc(C(=O)NCC2CCN(c3ccc(C#N)cc3)CC2)n1 [Compound 420] | > 1 µM and 1.03 to 10 µM |
| CC(C)NC(=O)c1cccc(C(=O)NCC2CCN(c3cccc(S(C)(=O)=O)c3)CC2)n1 [Compound 421] | > 1 µM and 1.03 to 10 µM |
| CC(C)NC(=O)c1cccc(C(=O)NCC2CCN(c3ccc(S(C)(=O)=O)cc3)CC2)n1 [Compound 422] | > 1 µM and 1.03 to 10 µM |
| Cc1cccc(-n2cc(CNC(=O)c3ccc(F)c(C(=O)NC(C)C)n3)cn2)c1 [Compound 428] | 0.004 to 0.097 µM |
| Cc1cccc(-n2cc(CNC(=O)c3nc(C(=O)NC(C)C)ccc3F)cn2)c1 [Compound 429] | 0.102 to 0.959 µM |
| CC(C)NC(=O)c1cc(O)cc(C(=O)NCc2cnn(-c3ccc4nccnc4c3)c2)n1 [Compound 436] | 0.004 to 0.097 µM |
